Structures can show the parent of a compound that is named as a salt.
Molecular target: BRAF V600E (Homo sapiens, UniProt P15056, V600E)
Test: HiBiT cellular BRAF^V600E degradation assay
Format: cell-based
Settings: A375.10 cells, 24 h; for DC50: concentration at which 50% of total cellular BRAF^V600E is degraded; for Emax: residual protein remaining in the cell, read-out: HiBit 24 h Emax

Chain of BRAF V600E (P15056 whole entry V600E): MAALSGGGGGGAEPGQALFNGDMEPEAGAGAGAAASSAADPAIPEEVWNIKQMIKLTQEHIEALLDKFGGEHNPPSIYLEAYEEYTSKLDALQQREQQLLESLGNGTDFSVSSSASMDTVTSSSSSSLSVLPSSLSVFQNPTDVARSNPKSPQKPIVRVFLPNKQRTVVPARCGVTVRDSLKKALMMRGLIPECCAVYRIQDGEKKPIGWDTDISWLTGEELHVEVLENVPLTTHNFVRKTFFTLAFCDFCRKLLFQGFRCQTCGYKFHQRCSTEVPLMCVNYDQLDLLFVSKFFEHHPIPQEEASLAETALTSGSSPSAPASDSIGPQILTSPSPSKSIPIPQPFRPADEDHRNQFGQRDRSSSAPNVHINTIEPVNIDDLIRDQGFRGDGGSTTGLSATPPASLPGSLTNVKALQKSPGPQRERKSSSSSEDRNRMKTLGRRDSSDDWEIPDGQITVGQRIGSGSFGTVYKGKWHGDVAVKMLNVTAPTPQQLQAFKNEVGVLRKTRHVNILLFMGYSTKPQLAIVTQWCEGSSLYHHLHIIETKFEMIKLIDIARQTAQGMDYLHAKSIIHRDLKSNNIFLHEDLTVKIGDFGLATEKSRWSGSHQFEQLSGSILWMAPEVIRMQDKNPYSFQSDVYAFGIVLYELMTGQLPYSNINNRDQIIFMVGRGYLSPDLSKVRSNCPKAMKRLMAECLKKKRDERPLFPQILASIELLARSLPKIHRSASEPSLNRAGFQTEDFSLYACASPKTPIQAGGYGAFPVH

`CCN(C)S(=O)(=O)Nc1ccc(F)c(Oc2ccc3ncn([C@H]4COC5(CCN(C(=O)CC6(F)CCN(c7cc8c(cc7F)c(N7CCC(=O)NC7=O)nn8C)CC6)CC5)C4)c(=O)c3c2)c1C#N` [Example 201, (3R)-3-[6-[2-cyano-3-[[ethyl(methyl)sulfamoyl]amino]-6-fluorophenoxy]-4-oxoquinazolin-3-yl]-8-[2-[1-[3-(2,4-dioxo-1,3-diazinan-1-yl)-5-fluoro-1-methylindazol-6-yl]-4-fluoropiperidin-4-yl]acetyl]-1-oxa-8-azaspiro[4.5]decane] gave a DC50 of 42.5 nM and an Emax of 27.2%.
`CCN(C)S(=O)(=O)Nc1ccc(F)c(Oc2ccc3ncc(-n4cc(N5CCCN(C(=O)CN6CCC(c7ccc(NC8CCC(=O)NC8=O)cc7F)CC6)CC5)cn4)nc3c2)c1C#N` (stereo not shown) [Example 215, 7-[2-cyano-3-[[ethyl(methyl)sulfamoyl]amino]-6-fluorophenoxy]-2-[4-[4-[2-[4-[4-[(2,6-dioxopiperidin-3-yl)amino]-2-fluorophenyl]piperidin-1-yl]acetyl]-1,4-diazepan-1-yl]pyrazol-1-yl]quinoxaline] showed a DC50 of 18.6 nM and an Emax of 7.82%.
Work on `CCN(C)S(=O)(=O)Nc1ccc(F)c(Oc2ccc3ncc(OCC4CCN(C(=O)CN5CCC(c6ccc(NC7CCC(=O)NC7=O)cc6F)CC5)CC4)nc3c2)c1C#N` (stereo not shown) [Example 216, 7-[2-cyano-3-[[ethyl(methyl)sulfamoyl]amino]-6-fluorophenoxy]-2-[[1-[2-[4-[4-[(2,6-dioxopiperidin-3-yl)amino]-2-fluorophenyl]piperidin-1-yl]acetyl]piperidin-4-yl]methoxy]quinoxaline] yielded a DC50 of 25.2 nM and an Emax of 10.1%.
`CCN(C)S(=O)(=O)Nc1ccc(F)c(Oc2ccc3ncc(OC[C@@H]4[C@H]5CN(C(=O)CN6CCC(c7ccc(NC8CCC(=O)NC8=O)cc7F)CC6)C[C@@H]45)nc3c2)c1C#N` (stereo partly drawn) [Example 217, 7-[2-cyano-3-[[ethyl(methyl)sulfamoyl]amino]-6-fluorophenoxy]-2-[[(1R,5S)-3-[2-[4-[4-[(2,6-dioxopiperidin-3-yl)amino]-2-fluorophenyl]piperidin-1-yl]acetyl]-3-azabicyclo[3.1.0]hexan-6-yl]methoxy]quinoxaline] was tested, and the DC50 was 18 nM and the Emax was 8.83%.
`CCN(C)S(=O)(=O)Nc1ccc(F)c(Oc2ccc3ncc(C4COC5(CCN(C(=O)CN6CCC(c7ccc(NC8CCC(=O)NC8=O)cc7F)CC6)CC5)C4)cc3c2)c1C#N` (stereo not shown) [Example 218, 3-[6-[2-cyano-3-[[ethyl(methyl)sulfamoyl]amino]-6-fluorophenoxy]quinolin-3-yl]-8-[2-[4-[4-[(2,6-dioxopiperidin-3-yl)amino]-2-fluorophenyl]piperidin-1-yl]acetyl]-1-oxa-8-azaspiro[4.5]decane] was tested, and the DC50 was 11.3 nM and the Emax was 6.96%.
Compound `CCN(C)S(=O)(=O)Nc1ccc(F)c(Oc2ccc3ncc(N4CCC5(CCN(C(=O)CN6CCC(c7ccc(NC8CCC(=O)NC8=O)cc7F)CC6)CC5)C4)nc3c2)c1C#N` (stereo not shown) [Example 219, 7-[2-cyano-3-[[ethyl(methyl)sulfamoyl]amino]-6-fluorophenoxy]-2-[8-[2-[4-[4-[(2,6-dioxopiperidin-3-yl)amino]-2-fluorophenyl]piperidin-1-yl]acetyl]-2,8-diazaspiro[4.5]decan-2-yl]quinoxaline] has a DC50 of 21.7 nM and an Emax of 13.9%.
With `CCN(C)S(=O)(=O)Nc1ccc(F)c(Oc2ccc3ncc(C4CCC5(CCN(C(=O)CN6CCC(c7ccc(NC8CCC(=O)NC8=O)cc7F)CC6)CC5)C4)nc3c2)c1C#N` (stereo not shown) [Example 220, 7-[2-cyano-3-[[ethyl(methyl)sulfamoyl]amino]-6-fluorophenoxy]-2-[8-[2-[4-[4-[(2,6-dioxopiperidin-3-yl)amino]-2-fluorophenyl]piperidin-1-yl]acetyl]-8-azaspiro[4.5]decan-3-yl]quinoxaline] the DC50 was 47 nM and the Emax was 10.5%.
`CCN(C)S(=O)(=O)Nc1ccc(F)c(Oc2ccc3ncc(C4COC5(CCN(C(=O)CN6CCC(c7ccc(NC8CCC(=O)NC8=O)cc7F)CC6)CC5)C4)nc3c2)c1C#N` (stereo not shown) [Example 221, 3-[7-[2-cyano-3-[[ethyl(methyl)sulfamoyl]amino]-6-fluorophenoxy]quinoxalin-2-yl]-8-[2-[4-[4-[(2,6-dioxopiperidin-3-yl)amino]-2-fluorophenyl]piperidin-1-yl]acetyl]-1-oxa-8-azaspiro[4.5]decane] gave a DC50 of 30.5 nM and an Emax of 10.3%.
Work on `CCN(C)S(=O)(=O)Nc1ccc(F)c(Oc2ccc3ncc([C@@H]4COC5(CCN(C(=O)CN6CCC(c7ccc(NC8CCC(=O)NC8=O)cc7F)CC6)CC5)C4)nc3c2)c1C#N` (stereo partly drawn) [Example 223, (3R)-3-[7-[2-cyano-3-[[ethyl(methyl)sulfamoyl]amino]-6-fluorophenoxy]quinoxalin-2-yl]-8-[2-[4-[4-[(2,6-dioxopiperidin-3-yl)amino]-2-fluorophenyl]piperidin-1-yl]acetyl]-1-oxa-8-azaspiro[4.5]decane] yielded a DC50 of 29.6 nM and an Emax of 10.5%.
With `CCN(C)S(=O)(=O)Nc1ccc(F)c(Oc2ccc3ncc([C@H]4COC5(CCN(C(=O)CN6CCC(c7ccc(NC8CCC(=O)NC8=O)cc7F)CC6)CC5)C4)nc3c2)c1C#N` (stereo partly drawn) [Example 224, (3S)-3-[7-[2-cyano-3-[[ethyl(methyl)sulfamoyl]amino]-6-fluorophenoxy]quinoxalin-2-yl]-8-[2-[4-[4-[(2,6-dioxopiperidin-3-yl)amino]-2-fluorophenyl]piperidin-1-yl]acetyl]-1-oxa-8-azaspiro[4.5]decane] the DC50 was 22.9 nM and the Emax was 9.09%.
Compound `CCN(C)S(=O)(=O)Nc1ccc(F)c(Oc2ccc3ncn([C@@H]4COC5(CCN(C(=O)CC6(O)CCN(c7cc8c(cc7F)c(N7CCC(=O)NC7=O)nn8C)CC6)CC5)C4)c(=O)c3c2)c1C#N` [Example 228, (3S)-3-[6-[2-cyano-3-[[ethyl(methyl)sulfamoyl]amino]-6-fluoro-phenoxy]-4-oxo-quinazolin-3-yl]-8-[2-[1-[3-(2,4-dioxohexahydropyrimidin-1-yl)-5-fluoro-1-methyl-indazol-6-yl]-4-hydroxy-4-piperidyl]acetyl]-1-oxa-8-azaspiro[4.5]decane] has a DC50 of 18.6 nM and an Emax of 7.82%.
`CCN(C)S(=O)(=O)Nc1ccc(F)c(Oc2ccc3ncn(CCC4CCN(C(=O)CN5CCC(c6ccc(NC7CCC(=O)NC7=O)cc6)CC5)CC4)c(=O)c3c2)c1C#N` (stereo not shown) [Example A1, 6-[2-cyano-3-[[ethyl(methyl)sulfamoyl]amino]-6-fluoro-phenoxy]-3-[2-[1-[2-[4-[4-[(2,6-dioxo-3-piperidyl)amino]phenyl]-1-piperidyl]acetyl]-4-piperidyl]ethyl]-4-oxo-quinazoline] showed a DC50 of 78 nM and an Emax of 23%.
With `CCN(C)S(=O)(=O)Nc1ccc(F)c(Oc2ccc3ncn(CCC4CCN(CC(=O)N5CCC(c6ccc(NC7CCC(=O)NC7=O)cc6)CC5)CC4)c(=O)c3c2)c1C#N` (stereo not shown) [Example A2, 6-[2-cyano-3-[[ethyl(methyl)sulfamoyl]amino]-6-fluoro-phenoxy]-3-[2-[1-[2-[4-[4-[(2,6-dioxo-3-piperidyl)amino]phenyl]-1-piperidyl]-2-oxo-ethyl]-4-piperidyl]ethyl]-4-oxo-quinazoline, 2,2,2-trifluoroacetic acid salt] the DC50 was 165 nM and the Emax was 26%.
`N#Cc1c(NS(=O)(=O)C2CCCC2)ccc(F)c1Oc1ccc2ncn(CCC3CCN(C(=O)CN4CCC(c5ccc(NC6CCC(=O)NC6=O)cc5)CC4)CC3)c(=O)c2c1` (stereo not shown) [Example A3, N-[2-cyano-3-[3-[2-[1-[2-[4-[4-[(2,6-dioxo-3-piperidyl)amino]phenyl]-1-piperidyl]acetyl]-4-piperidyl]ethyl]-4-oxo-quinazolin-6-yl]oxy-4-fluoro-phenyl]cyclopentanesulfonamide 2,2,2-trifluoroacetic acid salt] was tested, and the DC50 was 242 nM and the Emax was 24%.

Reference: patent publication US12486253B2, “Therapeutics for the degradation of mutant BRAF” (C4 THERAPEUTICS, INC., priority 2021, dated 2025)
